Type in all cases: cell-based, mice (Mus musculus)
Assay [1] relates to MARCH-I. Briefly: MARCH-I mRNA in DCs by real time PCR. The protocol: (§1) The supernatants were collected and used for analyzing cytokine. The cells were further treated with 20 ng/ml of Rapamycin (Cell Signaling), 1 μg/ml of Cyclosporine A (Roche) or 20 ng/ml of IL-10 recombinant murine (R&D System) for 24 h and the total RNA was removed.
The total RNA was isolated from the DCs treated using the kit RNAeasy (Qiagen), according to the manufacturer instructions. The total purified RNA concentration was determined with the kit Qubit® RNA Assay Kit (Invitrogen), read in the Qubit® Fluorometer (Invitrogen). 50 ng of the RNA had reverse transcriptase with 100 U of Sensiscript (Qiagen). DNA concentrations were determined with the kit Qubit® dsDNA HS Assay (Invitrogen), read in the Qubit® Fluorometer (Invitrogen). In a final volume of 10 μL, 8 ng of cDNA were applied using some assays Taqman® Gene Expression (Applied Biosystems): IL10 (Mm00439614_m1), March1 (Mm00613524_m1) and β-actin (4352933E), according to the manufacturer recommendations.
The quantitative real time PCR was performed in the instrument StepOne™ Real-Time PCR System (Applied Biosystems). The relative levels of mRNA were calculated according to the comparative method of Ct, described by […] & LIVAK (2008). The β-actin constituent gene was used as setter. Non-treated DCs served as reference for OVA or Hsp70-treated DCs.
(§2) After that, IL-10 mRNA levels were analyzed by Real-time PCR. The β-actin was used as a setter. The IL-10 concentration was measured in the cultures supernatant by flow cytometry. […] (C) As in A, however the MARCH-I mRNA levels were analyzed by Real-time PCR. […] DCs IL-10 KO were also treated with Recombinant IL-10. All treatments were performed for 24 h and MARCH-I mRNA levels were analyzed by Real-time PCR. […] After this period, grafts were sutured in the BALB/c animals' back and the acceptance was daily monitored. Graphs expressed on average ±SEM. *, p<0.05; **, p<0.01; ***, […]. n=3-5 mice per group. Representative results of 3 independent experiments.
After this period, the MARCH-I expression increase was analyzed by Real-time PCR.

Assay [2] relates to CD86. Conditions: BMDCs treated or not with LPS 24 h, then treated or not with Hsp70 for additional 24 h.
Assay [3] deals with MHC II. Nature of the assay: MHC II (I-A^b) expression in DCs isolated from skin draining lymph nodes. The protocol: CD11c+ cells were purified from lymph nodes that drain mice skin antigens C57Bl/6 WT or TLR2 KO, and 129Sv/Ev WT or IL-10 KO. The animals were sacrificed and the axial, brachial and inguinal lymph nodes were removed. These organs were macerated in a nylon screen with a mean that has D Collagenase (Roche). The cell suspension achieved was marked with the magnetic beads conjugated with an anti-CD11c antibody (N418) (Miltenyi Biotech) for 15 min. After being washed, the CD11c+ cells were purified by positive selecting using the MACS MS (Miltenyi Biotech) separation columns, according to the manufacturer instructions. The cells purity purified was controlled by flow cytometry, indicating a purity of 90% CD11c+ cells in the positive fraction. Therefore, the cells were grown in 96-well plates in serum free mean AIM-V® (Gibco).
as §1
For analyzing the migration and activation of the DCs subtypes, the cells were marked for I-A^b (AF6-120.1), CD11c (HL3), CD11b (M1/70), CD45R/B220 (RA3-6B2), CD103 (M290), CCR7 (CD197-4B12), CD80 (16-10A1), CD86 (GL1) antibodies achieved from BD Biosciences; and Langerin (CD207—eBioRMUL.2) from eBioscience.
After this period, the expression of I-A^b in the DCs was analyzed by flow cytometry.
(A) Analysis strategy for DCs subtypes present in the mice recipients DNL. […] After this period, the expression of I-A^b was analyzed in the DCs CD103+. Graphs expressed on average ±SEM. **, p<0.01; ***, […]. n=3 mice per group. Representative results of 3 independent experiments.
as §2
The β-actin was used as setter. […] (C) Representative graphs and percentages of the CD11c+ I-Ab^hi, CD11c+I-Ab^int and CD11c+I-Ab^low cells of DCs isolated from LNs draining skin antigens of WT animals or TLR2 KO. […] After this period, the treated grafts were sutured in the BALB/c animals' back and the acceptance was daily monitored. […]

As for “Hsp70: recombinant Mycobacterium tuberculosis Hsp70 (DnaK) produced in Escherichia coli BL21, LPS removed”, the “MARCH-I mRNA levels in DCs IL-10 KO (FIG. 11 D)” value in assay [1] (DCs from IL-10 knockout animals, 24 h, compared with DCs WT) was “did not present an increase”. In addition, in assay [1] (DCs isolated from LNs, 24 h), the “increase in the MARCH-I mRNA (FIG. 11 C)” value is reported as 20 times. In addition, in assay [1] (lymph node DCs, 24 hours, Hsp70 30 μg/mL, Rapamycin 20 ng/ml, Cyclosporine A 1 μg/ml, IL-10 20 ng/ml), the “MARCH-I induction on DCs regarding the basal medium (FIG. 24)” value is listed as “only treatment able to induce MARCH-I”. Besides, the “percentage of CD11c+ CD86^hi cells (FIG. 5)” value in assay [2] was “revert partially”. In assay [3] (24 h, vs OVA), the “MHC II expression in DCs isolated from skin draining lymph nodes (FIG. 3)” value is “increase in the number of DCs expressing intermediate or low levels of MHC II”. For the same substance, the “MHC II expression inhibition in DCs TLR2 KO (FIG. 12 C)” value in assay [3] (DCs isolated from LNs of WT or TLR2 KO) is “dependent on TLR2”. Also, the “reduction of MHC II expression in IL-10 KO DCs (FIG. 11 B)” value in assay [3] (DCs of knockout animals for IL-10) is recorded as “not possible to note this phenomenon”. The “MHC II expression in DCs CD103+ isolated from the lymph nodes (FIG. 9 C)” value in assay [3] (in vitro, 30 μg/ml, 24 h) was “reduce in vitro the MHC II expression”.

For the origin of these results see US20160295854A1, “COMPOSITION AND METHOD FOR EX-VIVO IMMUNOMODULATION AND/OR PRESERVATION OF ORGANS, METHODS AND USE” (UNIAO BRASILEIRA DE EDUCACAO E ASSISTENCIA , MANTENEDORA DA …, priority 2014, published 2016).
